Experimental data: ChEMBL document CHEMBL1201862, “PubChem BioAssay data set” (2004)
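Growth conditions: 96-well plates. Treatment: test compound, 48 hours, 5 concentrations. Analysis: linear interpolation between bracketing concentrations; unreached endpoints set to highest concentration. Here, GI50 denotes the concentration required for 50% inhibition of growth.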 Activity calls are given as the source filed them. No stated cut-off is given here; in the data, active = GI50 up to about 1.1 µM and inactive = higher.

Experiments:
Assay in all cases: NCI tumour cell line growth inhibition, 48 h
BT-549 = test system: BT-549
MDA-N = test system: MDA-N
HOP-18 = test system: HOP-18
LXFL 529 = test system: LXFL 529
DMS-273 = test system: DMS-273
KM-20L2 = test system: KM-20L2
XF498 = test system: XF498
M19-MEL = test system: M19-MEL
RXF 631 = test system: RXF 631

Row | Structure (SMILES) | GI50 (BT-549) | GI50 (MDA-N) | other results
1 | C/C(=N\NC(=S)NCc1ccccc1)c1nc2cccnc2[nH]1 | 6.12 µM (inactive) | 11.3 µM (inactive) | 
2 | CC(=O)OC1COC(n2nc(/C=C/c3ccc(Cl)cc3)c(=O)n(/N=C/c3ccccc3)c2=S)C(OC(C)=O)C1OC(C)=O (stereo not drawn) | > 100 µM (inactive) | > 100 µM (inactive) | 
3 | O=C(c1ccccc1)N1CCC(Nc2nccs2)O1 (stereo not drawn) | > 10 µM (inactive) |  | 
4 | CC(=O)OCC12C(OC(C)=O)C[C@@H](C)C3(CC(c4ccoc4)OC3=O)C1CCC(OC(C)=O)C21CO1 (stereo partly drawn) | > 100 µM (inactive) | > 100 µM (inactive) | 
5 | CC1C(c2ccccc2)OP(=O)(OC(C#N)c2ccccc2)N1C (stereo not drawn) | > 100 µM (inactive) | > 100 µM (inactive) | 
6 | Cc1ccc(O)c(Cc2nc3ccccc3nc2-c2cccc(Cl)c2)c1 | > 100 µM (inactive) | 29.5 µM (inactive) | 
7 | CN1[C@@H]2CCCC[C@H]2N(C)P1(=O)C(O)/C=C/c1ccccc1 (stereo partly drawn) | > 100 µM (inactive) | > 100 µM (inactive) | 
8 | O=C1NC(Cc2ccccc2)C(=O)N2CCCC12 (stereo not drawn) |  |  | GI50 (HOP-18): > 100 µM (inactive); GI50 (LXFL 529): > 100 µM (inactive); GI50 (DMS-273): > 100 µM (inactive); GI50 (KM-20L2): > 100 µM (inactive); GI50 (XF498): > 100 µM (inactive); GI50 (M19-MEL): > 100 µM (inactive)
9 | O=C1CNC(=O)/C(=C/c2c[nH]c3ccccc23)N1 | > 100 µM (inactive) | > 100 µM (inactive) | 
10 | CN(C)c1ccc(/C=C/C(=O)c2ccccc2)cc1Br |  |  | GI50 (LXFL 529): 15.1 µM (inactive); GI50 (KM-20L2): 25.1 µM (inactive); GI50 (XF498): 16.3 µM (inactive); GI50 (M19-MEL): 18.7 µM (inactive)
11 | CC1(C)C=Cc2c(cc(O)c3c(=O)c4cc(Cl)ccc4[nH]c23)O1 | 2.63 µM (inactive) | 2.62 µM (inactive) | 
12 | Cc1cccc2nc3cccc(C(=O)NCCC[N+](C)(CCCNC(=O)c4cccc5nc6cccc(C)c6nc45)Cc4ccc([N+](=O)[O-])n4C)c3nc12 | > 100 µM (inactive) | 6.08 µM (inactive) | 
13 | COc1cc(/C=C(\C#N)C(=O)c2ccccc2)cc(OC)c1OC |  |  | GI50 (HOP-18): > 100 µM (inactive); GI50 (LXFL 529): > 100 µM (inactive); GI50 (DMS-273): > 100 µM (inactive); GI50 (KM-20L2): > 100 µM (inactive); GI50 (M19-MEL): > 100 µM (inactive)
14 | COC(=O)CN1C(=O)C2(C(=O)OC)OC1(c1ccc([N+](=O)[O-])cc1)C1C(=O)N(c3ccccc3)C(=O)C12 (stereo not drawn) | > 100 µM (inactive) | > 100 µM (inactive) | 
15 | N=C(N)NCCCC(NC(=O)OCCCCn1ccc(N)nc1=O)C(=O)O (stereo not drawn) | > 100 µM (inactive) | > 100 µM (inactive) | 
16 | CCN1CCC(O)(c2ccc(Oc3ccc(F)cc3)cc2)C(C(=O)c2ccc(Oc3ccc(F)cc3)cc2)C1 (stereo not drawn) | 15.7 µM (inactive) | 16.9 µM (inactive) | 

Row | Structure (SMILES) | GI50 (BT-549) | GI50 (MDA-N) | other results
17 | CC1=NN(c2nc(N)nc(CSc3nc4n(c(=S)n3)CCN4)n2)C(C)(C)C1 | > 100 µM (inactive) |  | 
18 | Clc1ccc(/C=C/c2csnn2)cc1 |  |  | GI50 (HOP-18): > 100 µM (inactive); GI50 (LXFL 529): > 100 µM (inactive); GI50 (DMS-273): > 100 µM (inactive); GI50 (KM-20L2): > 100 µM (inactive); GI50 (XF498): > 100 µM (inactive); GI50 (M19-MEL): > 100 µM (inactive)
19 | C[C@H]1NC(=O)C2CCCCN2C(=O)CN(C)C(=O)CNC(=O)C2CCCCN2C(=O)[C@@H](NC(=O)c2nc3ccccc3cc2O)[C@@H](C)NC(=O)C2CCCCN2C(=O)CN(C)C(=O)CNC(=O)[C@@H]2CCCCN2C(=O)C1NC(=O)c1nc2ccccc2cc1O (stereo partly drawn) |  |  | GI50 (LXFL 529): 0.14 µM (active); GI50 (DMS-273): 0.0255 µM (active); GI50 (RXF 631): 0.164 µM (active); GI50 (KM-20L2): 0.378 µM (active); GI50 (M19-MEL): 0.181 µM (active)
20 | O=c1c2cccnc2n2n1Cc1ccccc1C2 | > 100 µM (inactive) | > 100 µM (inactive) | 
21 | N#CC(NC12CC3CC(CC(C3)C1)C2)c1ccccc1 (stereo not drawn) | > 100 µM (inactive) | > 100 µM (inactive) | 
22 | CCOC(=O)/C(=C\NC(C)(C)C)c1nc2ccccc2[nH]1 | 27.9 µM (inactive) | 22.9 µM (inactive) | 
23 | CN1CCN(c2ncc3c(n2)sc2c(=O)n(-c4ccccc4)cnc23)CC1 | > 100 µM (inactive) | > 100 µM (inactive) | 
24 | C/C(=N\NC(N)=S)c1cccs1.OB(O)c1ccccc1 | > 100 µM (inactive) | > 100 µM (inactive) | 
25 | CC(C)=CC(=O)O[C@@H]1CC(C)(C)CC2C3=CCC4[C@]56CC[C@](O)(OC5)C(C)(C)C6CC[C@@]4(C)C3(C)CC[C@]21C(=O)O (stereo partly drawn) | > 100 µM (inactive) | > 100 µM (inactive) | 
26 | C=CCN1CCN([C@H](c2ccc(C(=O)N(CC)CC)cc2)c2cccc(OC)c2)CC1 | > 25 µM (inactive) | > 25 µM (inactive) | 
27 | COC1=CC(C)C2C[C@H]3O[C@H](O)C[C@H]4C(C)C(=O)C(O)C([C@@]2(C)C1=O)[C@@]34C (stereo partly drawn) |  |  | GI50 (HOP-18): > 100 µM (inactive); GI50 (LXFL 529): > 100 µM (inactive); GI50 (DMS-273): > 100 µM (inactive); GI50 (M19-MEL): > 100 µM (inactive)
28 | COC(=O)C1CC(OC(C)=O)C=C2C(=O)CCC21 (stereo not drawn) |  |  | GI50 (HOP-18): 20.5 µM (inactive); GI50 (LXFL 529): 15.5 µM (inactive); GI50 (DMS-273): 17.2 µM (inactive); GI50 (RXF 631): 27.5 µM (inactive); GI50 (KM-20L2): 30.2 µM (inactive); GI50 (M19-MEL): 22.4 µM (inactive)
29 | Nc1ccn(C=C=CCO)c(=O)n1 | > 100 µM (inactive) | > 100 µM (inactive) | 
30 | O=C1c2ccc3c4ccc5c6c(ccc(c7ccc(c2c37)C(=O)N1CCN1CCCCC1)c64)C(=O)N(CCN1CCCCC1)C5=O | > 100 µM (inactive) | > 100 µM (inactive) | 
31 | c1cc2c(cc1NC1=NCCO1)CCC2 |  | 3.24 µM (inactive) | 
32 | COc1cc(-c2oc3c(OC)c(O)c(OC)c(O)c3c(=O)c2OC)cc(OC)c1OC | 71.8 µM (inactive) | 61.8 µM (inactive) | 
